The source of these data is patent US7595327B2, “Beta-sulfonamide hydroxamic acid inhibitors of tace/matrix metalloproteinase” (priority 2005, dated 2009).

Molecules are shown by their SMILES. pIC50: −log10 of the molar value.

What is called pIC50 is the negative decadic logarithm of the IC50, by convention in mol/L.

The target of experiment [1] is T1, recombinant human catalytic domain of MMP-14 (Homo sapiens, UniProt P50281).
T1 construct: 20 kDa; purchased Chemicon International, Inc. CC1041
Briefly: In-vitro fluorescence assay of MMP-14 activity. Format: biochemical. The protocol:
The results were analyzed as described for MMP-13 activity, above.

The target in experiment [2] is T2, recombinant human MMP-2 (Homo sapiens, UniProt P08253).
T2 sequence (P08253 110-660): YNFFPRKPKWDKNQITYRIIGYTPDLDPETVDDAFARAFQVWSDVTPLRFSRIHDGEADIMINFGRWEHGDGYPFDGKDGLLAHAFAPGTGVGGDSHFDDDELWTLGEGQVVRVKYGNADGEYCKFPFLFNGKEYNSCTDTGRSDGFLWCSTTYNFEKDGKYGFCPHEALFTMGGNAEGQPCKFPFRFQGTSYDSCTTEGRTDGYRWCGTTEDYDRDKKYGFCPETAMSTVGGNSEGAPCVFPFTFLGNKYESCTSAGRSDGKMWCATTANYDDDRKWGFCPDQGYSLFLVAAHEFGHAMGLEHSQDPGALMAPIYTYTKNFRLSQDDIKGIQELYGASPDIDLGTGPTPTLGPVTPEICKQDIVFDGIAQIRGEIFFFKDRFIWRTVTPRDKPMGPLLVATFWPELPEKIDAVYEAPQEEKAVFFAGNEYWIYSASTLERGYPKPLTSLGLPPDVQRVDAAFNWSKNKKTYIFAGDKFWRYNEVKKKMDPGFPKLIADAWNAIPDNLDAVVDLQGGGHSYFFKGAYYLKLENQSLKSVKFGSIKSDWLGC
The experiment is described as follows: In-vitro fluorescence assay of MMP-2 activity. Format: biochemical.

The test system of experiment [3] is LPS-induced TNF-α secretion in human whole blood. Briefly: Human whole blood assay for LPS-induced TNF-α secretion. Format: cell-based. As to conditions: Homo sapiens, LPS 100 ng/ml, read-out: TNF Secretion HWB IC50. The essentials:
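Fresh blood from healthy volunteers pre-incubated 1 h at 37° C with compound (final DMSO <0.2%), then stimulated with 100 ng/ml LPS for 4 h or overnight at 37° C with rotation. Supernatant TNF-α measured by ELISA; percent inhibition and IC50 derived by curve fitting.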

For experiment [4], the target named is T3, recombinant human MMP-7 (Homo sapiens, UniProt P09237).
T3 construct: Active, recombinant human MMP-7 was purchased from Calbiochem (catalog #444270; expressed in E. coli, 19 kDa); purchased Calbiochem 444270; host or cells: E. coli
T3 sequence (P09237 95-267): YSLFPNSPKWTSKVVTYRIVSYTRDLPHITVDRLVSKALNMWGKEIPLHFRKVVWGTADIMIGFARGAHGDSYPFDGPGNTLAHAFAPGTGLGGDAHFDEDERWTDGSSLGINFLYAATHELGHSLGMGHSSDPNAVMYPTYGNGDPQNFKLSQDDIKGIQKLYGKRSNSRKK
Briefly: In-vitro fluorescence assay of MMP-7 activity. The format is biochemical. On the procedure: The method was similar to that for the determination of MMP-1 activity, described above, with the following differences. Active, recombinant human MMP-7 was purchased from Calbiochem (catalog #444270; expressed in E. coli, 19 kDa). […] The concentration of the substrate stock was spectrophotometrically determined using the extinction coefficient at 410 nm of 7500 M^−1 cm^−1. The assay buffer (pH 7.4) consisted of 50 mM Hepes, 100 mM NaCl, 5 mM CaCI2, and 0.005% Brij-35. […] The plates were then incubated at room temperature for 30 minutes. The enzymatic reactions were initiated by adding substrate to a final concentration of 15 μM and were mixed by pipelting up and down. The final DMSO concentration in the assay was 10% and the final, total assay volume was 200 μl. […]

The target of experiment [5] is recombinant human MMP-8 (Homo sapiens, UniProt P22894). Briefly: In-vitro fluorescence assay of MMP-8 activity.
Experiment [6] relates to TNF-α secretion in Raw 264.7 cells. Briefly: Cell-based assay for inhibition of TNF-α secretion in Raw cells. The settings on record: Mus musculus, RAW264.7, LPS 100 ng/ml, 4 hr. The essentials: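 Confluent Raw 264.7 cells were seeded overnight, refed, and pre-incubated 1 hr with compound (0.2% final DMSO), then stimulated with LPS at 100 ng/ml final for 4 hr at 37° C. Supernatant TNF-α measured by ELISA; % inhibition and IC50 by curve fitting.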

recombinant human MMP-8, sequence (P22894 101-467): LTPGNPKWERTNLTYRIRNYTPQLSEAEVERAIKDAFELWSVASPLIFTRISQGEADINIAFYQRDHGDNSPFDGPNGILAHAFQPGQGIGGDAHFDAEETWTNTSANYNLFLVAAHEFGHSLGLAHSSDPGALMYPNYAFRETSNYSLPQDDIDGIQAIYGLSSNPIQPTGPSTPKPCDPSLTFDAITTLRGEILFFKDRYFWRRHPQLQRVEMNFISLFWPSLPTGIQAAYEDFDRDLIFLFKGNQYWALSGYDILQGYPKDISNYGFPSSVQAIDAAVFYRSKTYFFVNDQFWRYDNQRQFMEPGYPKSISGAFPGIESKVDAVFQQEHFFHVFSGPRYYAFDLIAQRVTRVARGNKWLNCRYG

For `Cc1cc(COc2ccc(S(=O)(=O)N[C@@H]3CN(S(C)(=O)=O)C[C@@H]3C(=O)NO)cc2)c2ccccc2n1` (relative stereo) [Example 17, cis-N-Hydroxy-4-[({4-[(2-methylquinolin-4-yl)methoxy]phenyl}sulfonyl)amino]-1-(methylsulfonyl) pyrrolidine-3-carboxamide], the pIC50 is less than 4.78 in experiment [1]; less than 5.00 in experiment [2]; 6.47 in experiment [3]; 6.18 in experiment [4]; less than 4.78 in experiment [5]; 7.62 in experiment [6].

Turning to `Cc1cc(COc2ccc(S(=O)(=O)N[C@@H]3CN(C=O)C[C@@H]3C(=O)NO)cc2)c2ccccc2n1` (relative stereo) [Example 20, cis-1-Formyl-N-hydroxy-4-[({4-[(2-methylquinolin-4-yl)methoxy]phenyl}sulfonyl)amino]pyrrolidine-3-carboxamide], the pIC50 in experiment [1] is less than 4.78; in experiment [2], less than 5.00; in experiment [3] it was 6.92; in experiment [4], 6.09; in experiment [5], less than 4.78; in experiment [6], 7.70.

As for `CCNC(=O)N1C[C@H](C(=O)NO)[C@H](NS(=O)(=O)c2ccc(OCc3cc(C)nc4ccccc34)cc2)C1` (relative stereo) [Example 23, cis-1-Ethyl-N-hydroxy-4-[({4-[(2-methylquinolin-4-yl)methoxy]phenyl}sulfonyl)amino]pyrrolidine-1,3-dicarboxamide], the pIC50 in experiment [1] was less than 4.78; in experiment [2] it was less than 4.78; in experiment [3], 6.55; in experiment [4] it was 5.93; in experiment [5] it was less than 4.78; in experiment [6], 7.29.

As to `Cc1cc(COc2ccc(S(=O)(=O)N[C@H]3COC[C@H]3C(=O)NO)cc2)c2ccccc2n1` (stereo in doubt) [Example 26, (3S,4R)-4-[4-(2-Methyl-quinolin-4-ylmethoxy)-benzenesulfonylamino]-tetrahydro-furan-3-carboxylic acid hydroxyamide], the pIC50 was less than 4.78 in experiment [1]; less than 4.78 in experiment [2]; 6.70 in experiment [3]; 6.08 in experiment [4]; less than 4.78 in experiment [5]; 7.92 in experiment [6].

As to `Cc1cc(COc2ccc(S(=O)(=O)N[C@@H]3CCC[C@@H]3C(=O)NO)cc2)c2ccccc2n1` [Example 13, (1S,2R)-N-Hydroxy-2-[({4-[(2-methylquinolin-4-yl)methoxy]phenyl}sulfonyl)amino]cyclopentanecarboxamide], the pIC50 is less than 4.78 in experiment [1]; less than 5.00 in experiment [2]; 6.60 in experiment [3]; 6.35 in experiment [4]; less than 4.78 in experiment [5]; 8.05 in experiment [6].

`Cc1cc(COc2ccc(S(=O)(=O)N[C@@H]3CN(C(=O)NC(C)(C)C)CC[C@@H]3C(=O)NO)cc2)c2ccccc2n1` [Example 35, 3-[4-(2-Methyl-quinolin4-ylmethoxy)-benzenesulfonylamino]-piperidine-1,4-dicarboxylic acid 1-tert-butylamide 4-hydroxyamide]: the pIC50 in experiment [1] was less than 4.78; in experiment [2] it was less than 4.78; in experiment [3], 6.10; in experiment [4], 5.34; in experiment [5], less than 4.78; in experiment [6], 7.24.
